Laboratory results reported in ChEMBL document CHEMBL1132040, “Bioreductively-activated prodrugs for targeting hypoxic tissues: elimination of aspirin from 2-nitroimidazole derivatives” (Bioorg Med Chem Lett, 1999).

Assays:
Format in all cases: ADME
[1] = Reductive elimination of leaving group was determined at pH 7.4; expressed as loss of parent
[2] = Half life period at pH 9.1 was determined
[3] = Half life period at pH 7.4 was determined

Row | SMILES | Activity [1] | T1/2 [2] | T1/2 [3]
1 | CC(=O)Oc1ccccc1C(=O)OCc1cnc([N+](=O)[O-])n1C | 0.19 µM/J | ~ 30 ms | 
2 | Cn1c(CBr)cnc1[N+](=O)[O-] | 0.68 µM/J |  | ~ 0.3 ms
3 | Cn1c(COC(=O)c2ccccc2O)cnc1[N+](=O)[O-] | 0.21 µM/J | ~ 250 ms | ~ 70 ms
